In PubChem BioAssay (NCI):
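Where inhibition never reached the appropriate level, the endpoint shown equals the highest concentration tested. Otherwise, values were interpolated linearly from a five-concentration, 48-hour dose response in 96-well plates. TGI denotes the concentration required for complete inhibition of growth.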

Assays:
Experiment in all cases: growth of human tumour cells (NCI), 48 h
MDA-MB-435 = tested on: MDA-MB-435
MDA-MB-231 breast = tested on: MDA-MB-231 breast
SF-295 CNS = tested on: SF-295 CNS
MCF7 breast = tested on: MCF7 breast
DU-145 prostate = tested on: DU-145 prostate
SR leukemia = tested on: SR leukemia
SK-OV-3 ovarian = tested on: SK-OV-3 ovarian
LOX IMVI melanoma = tested on: LOX IMVI melanoma
SN12C renal = tested on: SN12C renal
OVCAR-5 ovarian = tested on: OVCAR-5 ovarian
HCT-116 colon = tested on: HCT-116 colon

Compound | TGI (MDA-MB-435) [µM] | TGI (MDA-MB-231 breast) [µM] | TGI (SF-295 CNS) [µM] | TGI (MCF7 breast) [µM] | TGI (DU-145 prostate) [µM] | TGI (SR leukemia) [µM] | TGI (SK-OV-3 ovarian) [µM] | TGI (LOX IMVI melanoma) [µM] | TGI (SN12C renal) [µM] | TGI (OVCAR-5 ovarian) [µM] | TGI (HCT-116 colon) [µM]
Clc1nc(Cl)nc(NC23CC4CC(CC(C4)C2)C3)n1 | 34.4 | 36.7 | 45.9 | > 64.3 | 31.3 | 47.7 | > 57.1 | 26.9 | 35.2 | 39.5 | 31.3
O=C1CC2C=CC(O)C(C1)C2 (stereo not given) | > 100 | > 100 | > 100 | > 100 | > 100 | > 100 | > 100 | > 100 | > 100 | > 100 | > 100
COc1ncc(C=C(C#N)C#N)c(OC)n1 | 78.8 | > 100 | > 100 | > 100 | > 100 | 53.5 | > 100 | > 100 | 74.8 | > 100 | 74.9
O=C1CC(C(O)CO)CC(=O)N1 (stereo not given) | > 100 | > 100 | > 100 | > 100 | > 100 | > 100 | – | > 100 | > 100 | > 100 | > 100
CC(C)(C)OC(=O)NCCCCC(NC(=O)OCc1ccccc1)C(N)=O (stereo not given) | > 100 | > 100 | > 100 | > 100 | > 100 | > 100 | > 100 | > 100 | > 100 | > 100 | > 100
Nc1nc(Cl)cc(NCC2(CO)CC(CCc3ccccc3)C2)n1 (stereo not given) | > 100 | > 100 | > 100 | > 100 | > 100 | > 88.8 | > 100 | > 100 | > 100 | > 100 | > 100
CC(=O)C(CN1CCCCC1)C(c1ccccc1)c1c(O)c2ccccc2oc1=O (stereo not given) | > 100 | > 100 | > 100 | > 100 | > 100 | > 100 | > 100 | > 100 | > 100 | > 100 | > 100
c1cc(-c2cnc(-c3ccc4c(c3)CCCO4)o2)ccn1 | 28.3 | 41 | 37.4 | 28.7 | 24.8 | 13.4 | 57.3 | 29.7 | 46.4 | 44.5 | 31.6
CCCCc1c(O)nc(Nc2nc3ccccc3[nH]2)[nH]c1=O | > 100 | > 100 | > 100 | > 100 | > 100 | > 100 | > 100 | > 100 | > 100 | > 100 | > 100
O=c1[nH]cnc2c(C3OC(CO)C(O)C3O)c[nH]c12 (stereo not given) | > 100 | > 100 | > 100 | > 100 | > 100 | > 100 | > 100 | > 100 | > 100 | > 100 | > 100
Cc1cc2c(c(C(=O)NCCC(=O)O)c1)Oc1c(cc(C)cc1C(=O)NCCC(=O)O)S2 | > 100 | > 100 | > 100 | > 100 | > 100 | > 100 | > 100 | > 100 | > 100 | > 100 | > 100
COc1ccc(N2C(=O)C3c4[nH]c5ccc([N+](=O)[O-])cc5c4C4CCC(C(C)(C)C)CC4C3C2=O)cc1 (stereo not given) | > 100 | 36.5 | > 100 | > 100 | > 100 | 8.56 | > 100 | > 100 | 76.9 | > 100 | 23.9
CCOP(=O)(OCC)[C@H](O)c1ccsc1 | > 100 | > 100 | > 100 | > 100 | > 100 | > 100 | > 100 | > 100 | > 100 | > 100 | > 100
CC(=O)OCC1OC(N2C(=O)/C(=C\c3ccc(Cl)cc3)C(N)=Nc3ccccc32)C(OC(C)=O)C(OC(C)=O)C1OC(C)=O (stereo not given) | 30.7 | 49.9 | > 100 | 33.1 | > 100 | 51.1 | > 100 | 39.2 | > 100 | > 100 | 30.2
O=c1[nH]c2nc3ccccc3c(=O)n2/c1=C/c1ccc(O)cc1 | 69.8 | > 100 | > 100 | > 100 | > 100 | > 100 | > 100 | > 100 | > 100 | > 100 | > 100
C=CC(=O)c1ccc2c(c1)OCCOCCOCCOCCOCCO2 | 43.2 | 36 | > 100 | 32.4 | > 100 | > 100 | > 100 | 35.6 | 52.8 | > 100 | > 56.2
